Laboratory results reported in patent publication US10202351B2, “Pyrazolyl derivatives as pest control agents” (BAYER ANIMAL HEALTH GMBH, priority 2015, dated 2019).

Key:
[1] = test system: Rhipicephalus sanguineus; experiment: Rhipicephalus sanguineus in vitro contact test with adult brown dog ticks; format: in vivo; details: after 48 h, dead or moribund ticks
Method: After the solvent has evaporated off, the tubes are populated with 5-10 adult dog ticks (Rhipicephalus sanguineus), sealed with a perforated plastic lid and incubated in a horizontal position in the dark at room temperature and ambient humidity. After 48 h, efficacy is determined. To this end, the ticks are knocked to the base of the tube and incubated on a hotplate at 45-50° C. for not more than 5 min. Ticks which remain motionless on the base or move in such an uncoordinated manner that they are unable to deliberately avoid the heat by climbing upwards are considered to be dead or moribund.

[2] = test system: Boophilus microplus; experiment: Boophilus microplus injection test; format: in vivo; details: application rate 20 μg/animal, after 7 days, laying of fertile eggs
Method: Solvent: dimethyl sulfoxide […] The animals are transferred into dishes and kept in a climate-controlled room. Efficacy is assessed after 7 days by laying of fertile eggs. Eggs which are not visibly fertile are stored in a climate-controlled cabinet until the larvae hatch after about 42 days.

[3] = test system: Ctenocephalides felis; experiment: Ctenocephalides felis oral test; format: in vivo; details: application rate 100 ppm in citrated cattle blood, kill after 2 days
Excerpt: Solvent: dimethyl sulfoxide […] Dilution with citrated cattle blood gives the desired concentration. About 20 unfed adult cat fleas (Ctenocephalides felis) are placed into a chamber which is closed at the top and bottom with gauze. A metal cylinder whose bottom end is closed with parafilm is placed onto the chamber. The cylinder contains the blood/active ingredient formulation, which can be imbibed by the fleas through the parafilm membrane.

[4] = test system: Lucilia cuprina; experiment: Lucilia cuprina test; format: in vivo; details: application rate 100 ppm, L1 larvae, kill after 2 days
Method: (§1) Solvent: dimethyl sulfoxide
(§2) To produce a suitable preparation of active compound, 10 mg of active compound are mixed with 0.5 ml of dimethyl sulfoxide, and the concentrate is diluted with water to the desired concentration.
About 20 L1 larvae of the Australian sheep blowfly (Lucilia cuprina) are transferred into a test vessel containing minced horsemeat and the active compound formulation of the desired concentration.
After 2 days, the kill in % is determined. 100% means that all the larvae have been killed; 0% means that no larvae have been killed.

[5] = test system: Phaedon cochleariae; experiment: Phaedon cochleariae spray test; format: in vivo; details: larvae on Chinese cabbage leaf discs, after 7 days
Method: (§3) Solvent: 78.0 parts by weight of acetone • • 1.5 parts by weight of dimethylformamide Emulsifier: alkylaryl polyglycol ether […] To produce further test concentrations, the formulation is diluted with emulsifier-containing water. Discs of Chinese cabbage leaves (Brassica pekinensis) are sprayed with an active ingredient formulation of the desired concentration and, after drying, populated with larvae of the mustard beetle (Phaedon cochleariae).

[6] = test system: Spodoptera frugiperda; experiment: Spodoptera frugiperda spray test; format: in vivo; details: caterpillars on maize leaf discs, after 7 days
Method: as §3, with “Leaf discs” for “Discs”, “maize (Zea mays)” for “Chinese cabbage leaves (Brassica pekinensis)”, “compound” for “ingredient”, “caterpillars” for “larvae”, “armyworm (Spodoptera frugiperda).” for “mustard beetle (Phaedon cochleariae).”

[7] = test system: Ctenocephalides felis; experiment: Ctenocephalides felis in vitro contact test with adult cat fleas; format: in vivo; details: application rate 5 μg/cm^2 (500 g/ha), after 48 h, dead or moribund fleas
Method: After the solvent has evaporated off, the tubes are populated with 5-10 adult cat fleas (Ctenocephalides felis), sealed with a perforated plastic lid and incubated in a horizontal position at room temperature and ambient humidity. After 48 h, efficacy is determined. To this end, the tubes are stood upright and the fleas are knocked to the base of the tube. Fleas which remain motionless at the base or move in an uncoordinated manner are considered to be dead or moribund.

[8] = test system: Musca domestica; experiment: Musca domestica test; format: in vivo; details: application rate 100 ppm, adult houseflies, kill after 2 days
Method: as §1, §2
Vessels containing a sponge treated with sugar solution and the active ingredient formulation of the desired concentration are populated with 10 adult houseflies (Musca domestica)).
After 2 days, the kill in % is determined. 100% means that all of the flies have been killed; 0% means that none of the flies have been killed.

[9] = test system: Tetranychus urticae; experiment: Tetranychus urticae spray test, OP-resistant; format: in vivo; details: all stages on bean leaf discs, after 6 days
Method: Solvent: 78.0 parts by weight of acetone • • 1.5 parts by weight of dimethylformamide Emulsifier: alkylaryl polyglycol ether […] To produce further test concentrations, the formulation is diluted with emulsifier-containing water. Discs of bean leaves (Phaseolus vulgaris) infested with all stages of the greenhouse red spider mite (Tetranychus urticae) are sprayed with an active ingredient formulation of the desired concentration.

[10] = logP determination by HPLC on reversed-phase column (EEC Directive 79/831 Annex V.A8); format: physicochemical
[11] = application rate 1 μg/cm^2 (100 g/ha)
[12] = application rate 5 μg/cm^2 (500 g/ha)
[13] = Table 1, HPLC C18, acetonitrile/water with formic acid

Cc1cc(C(F)(C(F)(F)F)C(F)(F)F)cc(C(F)(F)F)c1-n1cc(-c2cc(NC(=O)c3cocn3)ccc2F)cn1 [Example 2-12] gave an efficacy [1, 11] of 100%, an efficacy [2] of 100% and an efficacy [3] of 95%. The efficacy [4] was 90%, the efficacy ([5]; application rate 100 g/ha) was 100% and the efficacy ([6]; application rate 100 g/ha) was 100%.

Molecule O=C(Nc1ccc(F)c(-c2cnn(-c3c(Br)cc(C(F)(C(F)(F)F)C(F)(F)F)cc3C(F)(F)F)c2)c1)c1cocn1 [Example 2-14] has an efficacy [7] of 100%, an efficacy [1, 12] of 80% and an efficacy [2] of 100%. It also gave an efficacy [3] of 100%, an efficacy [4] of 90% and an efficacy [8] of 90%. It also gave an efficacy ([5]; application rate 100 g/ha) of 100% and an efficacy ([6]; application rate 100 g/ha) of 100%.

With Cc1cc(C(F)(C(F)(F)F)C(F)(F)F)cc(C)c1-n1cc(-c2ccc(Cl)c(NC(=O)c3ccc(F)cc3)c2)cn1 [Example 4, N-[2-chloro-5-[1-[2,6-dimethyl-4-[1,2,2,2-tetrafluoro-1-(trifluoromethyl)ethyl]phenyl]pyrazol-4-yl]phenyl]-4-fluorobenzamide] the efficacy [1, 12] was 100%, the efficacy [2] was 100% and the efficacy [3] was 100%. The efficacy [4] was 100%, the efficacy ([5]; application rate 500 g/ha) was 100% and the efficacy ([6]; application rate 100 g/ha) was 100%. For the same molecule, the efficacy ([6]; application rate 500 g/ha) was 100%, the efficacy ([9]; application rate 100 g/ha) was 100% and the efficacy ([9]; application rate 500 g/ha) was 90%. For the same molecule, the lgP [10, 13] was “lgP 5.57” and the lgP ([10]; synthesis example) was 5.57.

With Cc1cc(C(F)(C(F)(F)F)C(F)(F)F)cc(C)c1-n1cc(-c2ccc(F)c(NC(=O)c3ccc(F)cc3)c2)cn1 [Example 5] the efficacy [1, 12] was 80%, the efficacy [2] was 100% and the efficacy [3] was 90%. The efficacy [4] was 100%, the efficacy [8] was 80% and the efficacy ([5]; application rate 500 g/ha) was 100%. The efficacy ([6]; application rate 100 g/ha) was 100%, the efficacy ([6]; application rate 500 g/ha) was 100% and the efficacy ([9]; application rate 100 g/ha) was 100%. For the same molecule, the efficacy ([9]; application rate 500 g/ha) was 100% and the lgP [10, 13] was “lgP 5.07”.

Cc1cc(C(F)(C(F)(F)F)C(F)(F)F)cc(C)c1-n1cc(-c2ccc(F)c(NC(=O)c3ccc(F)cc3)c2F)cn1 [Example 7] gave an efficacy [7] of 100%, an efficacy [1, 12] of 80% and an efficacy [2] of 100%. For the same molecule, the efficacy [4] was 80%, the efficacy ([5]; application rate 100 g/ha) was 100% and the efficacy ([6]; application rate 100 g/ha) was 83%. The efficacy ([9]; application rate 100 g/ha) was 100% and the lgP [10, 13] was “lgP 4.84”.

Molecule Cc1cc(C(F)(C(F)(F)F)C(F)(F)F)cc(C)c1-n1cc(-c2cnc(Cl)c(NC(=O)c3ccc(F)cc3)c2)cn1 [Example 11] has an efficacy [1, 12] of 80%, an efficacy [2] of 100% and an efficacy [3] of 100%. For the same molecule, the efficacy [4] was 100%, the efficacy [8] was 100% and the efficacy ([5]; application rate 100 g/ha) was 100%. The efficacy ([6]; application rate 100 g/ha) was 100%, the efficacy ([9]; application rate 100 g/ha) was 90% and the lgP [10, 13] was “lgP 5.14”.

With Cc1cc(C(F)(C(F)(F)F)C(F)(F)F)cc(C)c1-n1cc(-c2ccc(F)c(NC(=O)c3cncnc3)c2)cn1 [Example 15] the efficacy [7] was 100%, the efficacy [2] was 100% and the efficacy [3] was 100%. For the same molecule, the efficacy [4] was 100%, the efficacy [8] was 100% and the efficacy ([5]; application rate 100 g/ha) was 100%. For the same molecule, the efficacy ([6]; application rate 100 g/ha) was 100% and the lgP [10, 13] was “lgP 3.95”.

In the case of Cc1cc(C(F)(C(F)(F)F)C(F)(F)F)cc(C)c1-n1cc(-c2ccc(F)c(NC(=O)c3ccncn3)c2)cn1 [Example 16], the efficacy [1, 12] is reported as 80%, the efficacy [2] is reported as 100% and the efficacy [3] is reported as 100%. The efficacy [4] was 95%, the efficacy [8] was 100% and the efficacy ([5]; application rate 100 g/ha) was 100%. For the same molecule, the efficacy ([6]; application rate 100 g/ha) was 100% and the lgP [10, 13] was “lgP 5.04”.

For Cc1cc(C(F)(C(F)(F)F)C(F)(F)F)cc(C(F)(F)F)c1-n1cc(-c2ccc(F)c(NC(=O)c3ccc(F)cc3)c2F)cn1 [Example 23], the efficacy [1, 11] was 100%, the efficacy [2] was 100% and the efficacy [3] was 100%. For the same molecule, the efficacy [4] was 100%, the efficacy [8] was 80% and the efficacy ([5]; application rate 100 g/ha) was 100%. It also gave an efficacy ([6]; application rate 100 g/ha) of 100%.

With COc1cc(C(=O)Nc2cc(-c3cnn(-c4c(C)cc(C(F)(C(F)(F)F)C(F)(F)F)cc4C(F)(F)F)c3)cnc2Cl)ccc1F [Example 24] the efficacy [1, 12] was 100%, the efficacy [2] was 100% and the efficacy [3] was 100%. The efficacy [4] was 100%, the efficacy [8] was 100% and the efficacy ([5]; application rate 100 g/ha) was 100%. It also gave an efficacy ([6]; application rate 100 g/ha) of 100% and an efficacy ([9]; application rate 100 g/ha) of 100%.

Cc1cc(C(F)(C(F)(F)F)C(F)(F)F)cc(C(F)(F)F)c1-n1cc(-c2ccc(F)c(NC(=O)c3ccc(C#N)cc3)c2)cn1 [Example 33] gave an efficacy [7] of 100%, an efficacy [1, 12] of 80% and an efficacy [2] of 100%. The efficacy [3] was 100%, the efficacy [4] was 100% and the efficacy [8] was 90%. The efficacy ([5]; application rate 100 g/ha) was 100%, the efficacy ([6]; application rate 100 g/ha) was 100% and the efficacy ([9]; application rate 100 g/ha) was 90%.

Cc1cc(C(F)(C(F)(F)F)C(F)(F)F)cc(C(F)(F)F)c1-n1cc(-c2ccc(F)c(NC(=O)c3ccncc3)c2)cn1 [Example 50] showed an efficacy [7] of 100%, an efficacy [1, 12] of 80% and an efficacy [2] of 100%. For the same molecule, the efficacy [3] was 100%, the efficacy [4] was 100% and the efficacy [8] was 100%. For the same molecule, the efficacy ([5]; application rate 100 g/ha) was 100%, the efficacy ([6]; application rate 100 g/ha) was 100% and the efficacy ([9]; application rate 100 g/ha) was 100%.

Cc1cc(C(F)(C(F)(F)F)C(F)(F)F)cc(C(F)(F)F)c1-n1cc(-c2ccc(F)c(NC(=O)c3ccnc(F)c3)c2)cn1 [Example 51] gave an efficacy [7] of 100%, an efficacy [2] of 100% and an efficacy [3] of 100%. The efficacy [4] was 100%, the efficacy [8] was 100% and the efficacy ([5]; application rate 100 g/ha) was 100%. The efficacy ([6]; application rate 100 g/ha) was 100% and the efficacy ([9]; application rate 100 g/ha) was 90%.

In the case of Cc1cnccc1C(=O)Nc1cc(-c2cnn(-c3c(C)cc(C(F)(C(F)(F)F)C(F)(F)F)cc3C(F)(F)F)c2)ccc1F [Example 54], the efficacy [7] is reported as 100%, the efficacy [2] is reported as 100% and the efficacy [3] is reported as 100%. For the same molecule, the efficacy [4] was 100%, the efficacy [8] was 100% and the efficacy ([5]; application rate 100 g/ha) was 100%. For the same molecule, the efficacy ([6]; application rate 100 g/ha) was 100% and the efficacy ([9]; application rate 100 g/ha) was 100%.

Molecule Cc1cc(C(F)(C(F)(F)F)C(F)(F)F)cc(C(F)(F)F)c1-n1cc(-c2ccc(F)c(NC(=O)C3CSC3)c2)cn1 [Example 66] has an efficacy [1, 12] of 100%, an efficacy [2] of 100% and an efficacy [3] of 100%. For the same molecule, the efficacy [4] was 100%, the efficacy [8] was 100% and the efficacy ([5]; application rate 100 g/ha) was 100%. It also gave an efficacy ([6]; application rate 100 g/ha) of 100% and an efficacy ([9]; application rate 100 g/ha) of 100%.

Work on Cc1cc(C(F)(C(F)(F)F)C(F)(F)F)cc(C(F)(F)F)c1-n1cc(-c2cccc(NC(=O)c3ccncc3)c2F)cn1 [Example 68] yielded an efficacy [7] of 100%, an efficacy [2] of 100% and an efficacy [3] of 100%. For the same molecule, the efficacy [4] was 100%, the efficacy [8] was 100% and the efficacy ([5]; application rate 100 g/ha) was 100%. For the same molecule, the efficacy ([6]; application rate 100 g/ha) was 100% and the efficacy ([9]; application rate 100 g/ha) was 100%.

With Cc1cc(C(F)(C(F)(F)F)C(F)(F)F)cc(C(F)(F)F)c1-n1cc(-c2cccc(NC(=O)c3cocn3)c2F)cn1 [Example 77] the efficacy [1, 11] was 100%, the efficacy [2] was 100% and the efficacy [3] was 100%. For the same molecule, the efficacy [4] was 100%, the efficacy [8] was 100% and the efficacy ([5]; application rate 100 g/ha) was 100%. For the same molecule, the efficacy ([6]; application rate 100 g/ha) was 100%.
